Results on two substances are retold here after article doi:10.1101/2025.02.17.638454, “Synergistic RAS-MAPK and AKT Activation in MYC-Driven Tumors via Adjacent PVT1 Rearrangements” (bioRxiv, 2025).

The target of data set [1] is T1, recombinant KRAS protein (Homo sapiens, UniProt P01116).
T1 construct: purchased Abcam ab156968
The data set can be described thus: Isothermal titration calorimetry of HNB into recombinant KRAS. Type of data set: binding. Conditions: ITC, pH 8.0, 25°C, N 1 (fixed). The protocol: (§1) Isothermal titration calorimetry (ITC) measures the change in temperature when two or more biomolecules bind to each other in a solution. The assay provides the binding affinity of ligands to proteins and the entropy or enthalpy of the reaction. Recombinant KRAS protein (#ab156968, Abcam) was dialyzed into the ITC assay buffer (20mM Tris pH 8.0, 100mM NaCl, 5mM Beta-mercaptoethanol) and concentrated to about 100 μM. During ITC titration twenty 6 μl injections (with intervals of 150 seconds) of 500μM HNB were made into the ITC cell containing 93 μM KRAS. Titration of 500μM HNB into the ITC assay buffer under the same conditions was used as the baseline control. ITC experiments were performed using Affinity ITC instrument (TA Instruments) at 25°C. The data was fitted and analyzed using NanoAnalyze software provided by TA Instruments. […]
(§2) bioRxiv preprint doi: https://doi.org/10.1101/2025.02.17.638454; this version posted February 22, 2025. The copyright holder for this preprint (which was not certified by peer review) is the author/funder, who has granted bioRxiv a license to display the preprint in perpetuity. It is made available under aCC-BY 4.0 International license. […]

Data set [2] relates to HNB. The data set can be described thus: ITC of HNB into assay buffer (self-interaction, baseline control). Type of data set: binding. As to conditions: 500 µM HNB into ITC assay buffer, 25°C. On the procedure:
as §1, §2
For orientation: In ITC the heat of successive injections is recorded.

Data set [3] relates to KRAS dimerization. The data set can be described thus: Acceptor photobleaching FRET of CFP-KRAS/YFP-KRAS in D458. Type of data set: cell-based. As to conditions: shRNA1.PVT1ts D458 with doxycycline-induced HNB; n=10, one-way ANOVA. The protocol:
pcDNA3.1 CFP-KRAS (#112717) and pcDNA3.1 YFP-KRAS (#112718) were purchased from Addgene. The plasmids were co-transfected into D458 cells in a 35 mm cell culture dish with glass bottom. The cells were imaged live 48 hours after transfection on the Nikon Super Resolution Confocal Microscope. CFP was excited using 405–445nm laser and YFP was excited using the 514 nm laser. YFP was photobleached at 80% power for 1 minute and the CFP and YFP were imaged after photobleaching using the respective laser and filters. The images were analyzed in Fiji, ImageJ. […]
bioRxiv preprint doi: https://doi.org/10.1101/2025.02.17.638454; this version posted February 22, 2025. The copyright holder for this preprint (which was not certified by peer review) is the author/funder, who has granted bioRxiv a license to display the preprint in perpetuity. It is made available under a CC-BY 4.0 International license .
Supplementary Figure 22: HNB regulates KRAS dimerization (A) Schematic representation of KRAS dimerization using acceptor photobleaching FRET assay. (B) Schematic representation of KRAS dimerization on knocking down HNB using shRNA1-PVT1ts. (C) Representative images showing signals for CFP-KRAS and YFP-KRAS. […]
Images were taken at 60X oil; the scale bar is 10µm. […] (p-value calculated by one-way ANOVA, n=10). […] (p-value calculated by one-way ANOVA, n=10). […]

Data set [4] relates to HALLMARK_MYC_TARGETS. The experiment in a line: GSEA MYC targets, COLO320DM. Type of data set: cell-based, human. Conditions: si.CircPVT1 vs si.Ctrl. An excerpt:
RNAseq processing: Raw reads were mapped to the hg19 human reference genome using the STAR aligner (v.2.5.0a) 66. PCR-duplicated reads and low mapping quality reads (MQ score below 20) were removed using Picard tools and SAMtools, respectively. Aligned reads were counted using htseq-count (v.0.6.1p1) 69 and normalized according to size factors method from DESeq2 70. We used fold change ≥2 and FDR <0.05 as the determination of differentially expressed genes (DEG). […]
Supplementary Figure 9: Gene set enrichment analysis scores (GSEA) analysis for MYC targets genes in COLODM320 (A,B) and SK-PN-DW (C,D) treated with si.CircPVT 1. si.Ctrl was used as control . n=3, for each treatment condition .
(also on this page, place not known: Enrichment Score Enrichment Score si.CircPVT1. control. condition. Enrichment Score Enrichment Score .CC-BY licenseavailable preprintthis https://doi.org/10.1101/2025.02.17.638454doi:) […]

No end group written: not given here.

T1 sequence (P01116 1-188 isoform P01116-2): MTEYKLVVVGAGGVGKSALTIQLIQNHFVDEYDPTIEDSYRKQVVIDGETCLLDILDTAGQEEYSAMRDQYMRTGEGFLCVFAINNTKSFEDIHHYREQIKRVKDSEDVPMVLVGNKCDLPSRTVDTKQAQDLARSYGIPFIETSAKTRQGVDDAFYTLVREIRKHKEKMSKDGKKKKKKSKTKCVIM

As to MKTQLGAVKGFLHV [HNB], in data set [1], the “-TDS” value is on record as -0.7 ± 1.5 kcal/mol and the DH was -4 ± 2 kcal/mol. In data set [2], the HNB self-interaction result is reported as “not detected”. In addition, in data set [3], the “CFP (donor) fluorescence after photobleaching of YFP” value is “mitigated the augmented CFP fluorescence”.

In the case of “si.CircPVT1: siRNA targeting the junction sequence of CircPVT1, 5’-UGGGCUUGAGGCCUGAUCUUU-3’ (other strand not given here)”, the “NES, HALLMARK_MYC_TARGETS_V1” value in data set [4] (n=3, Padj = 0.009) was -1.990. The “NES, HALLMARK_MYC_TARGETS_V2” value in data set [4] (n=3, Padj = 0.017) is -1.733.
